Assays:
[1] = biological target: T1, GluN2A component of NMDAR currents in hippocampal slices (Mus musculus, UniProt P35436+P35438); assay: Slice recordings, GluN2A component of synaptic NMDAR currents; settings: FIG. 18
T1 construct: from tissue; host or cells: mouse hippocampal slices, CA1 pyramidal neurons
Description: (§1) 6-8 week old C57/Bl6 mice or rats underwent cervical dislocation followed by decapitation. The brain was immediately transferred to an ice cold NMDG-based cutting solution consisting of: (in mM): 120 NMDG, 2.5 KCl, 1.2 NaH2PO4, 25 NaHCO3, 1.0 CaCl2, 7.0 MgCl2, 2.4 Na-pyruvate, 1.3 Na-ascorbate, 20 D-glucose with pH adjusted to 7.35 using HCl acid (unless stated, all chemicals and drugs were purchased from Sigma or BioShop, Canada). The hippocampus was dissected out and transverse hippocampal slices (400 μm) were obtained using a manual tissue chopper (Stoelting, Wood Dale, Ill., USA). Slices recovered in a heated (30° C.) incubating chamber for 1 hr which contained ACSF composed of (in mM): 124 NaCl, 3 KCl, 1.25 NaH2PO4, 1 MgSO47H2O, 2 CaCl2), 26 NaHCO3 and 15 D-glucose which was bubbled continuously with carbogen (95% O2/5% CO2) (pH to 7.3). After 30 additional minutes at room temperature, slices were transferred to a submerged recording chamber and were perfused continuously with carbogenated ACSF (2-3 ml/min). Whole-cell recordings of CA1 pyramidal neurons were performed using the “blind” method with a MultiClamp 700B amplifier. EPSCs (excitatory post synaptic currents) were elicited by stimulating the SC pathway. For isolation of NMDAR currents, cells were voltage clamped at +40 mV. […]

[2] = test system: hippocampal slices (LTP); assay: Long-term potentiation (LTP) in hippocampal slices; settings: mouse hippocampal slices; FIG. 19
Description: as §1

[3] = test system: GluN2A NMDARs; assay: NMDAR EPSC in brain slices of wild-type and GluN2A knockout mice; design: species or system mouse; settings: FIG. 20
Description: Male and female wild-type or GluN2A KO mice 20-25-day old were anesthetized using Isoflurane and rapidly decapitated. Brains were removed and immersed for 30 sec in cold (2-4° C.) cutting solution containing: 92 mM NMDG, 2.5 mM KCl, 1.25 mM NaH2PO4, 30 mM NaHCO3, 20 mM HEPES, 4.5 mM D-glucose, 5 mM Na-ascorbate, 3 mM Na-pyruvate, 0.5 mM CaCl2, and 10 mM MgCl2. The brain was blocked in melted 3% agar-A (CAS #9002-18-0, Bio Basic Canada Inc.), then glued onto the slicing platform and sectioned coronally at 320 μm thickness with a vibratome (Leica VT 1000S) containing cold (2-4° C.) bubbled (95% O2/5% CO2) cutting solution. Sections that included the prefrontal cortex were transferred into continuously carbogenated pre-warmed (32-34° C.) cutting solution for a period of 12 min time for initial recovery. […]
A brain slice was transferred onto a recording chamber on an upright Nikon FN1 microscope and the chamber was continuously perfused with 32° C. carbogenated aCSF recording solution containing: 121.85 mM NaCl, 2.5 mM KCl, 1.2 mM NaH2PO4, 24 mM NaHCO3, 12.5 mM D-glucose, 5 mM Na-ascorbate, 3 mM Na-pyruvate, 2 mM CaCl2, 0.1 mM MgCl2. Pyramidal neurons were identified in layer V of the prefrontal cortex via video monitored infra-red differential interference contrast illumination microscopy using a CFI APO 40× W NIR objective (0.80 numerical aperture, 3.5 mm working distance). […]

T1 sequence (P35436 23-1464, other chains not shown): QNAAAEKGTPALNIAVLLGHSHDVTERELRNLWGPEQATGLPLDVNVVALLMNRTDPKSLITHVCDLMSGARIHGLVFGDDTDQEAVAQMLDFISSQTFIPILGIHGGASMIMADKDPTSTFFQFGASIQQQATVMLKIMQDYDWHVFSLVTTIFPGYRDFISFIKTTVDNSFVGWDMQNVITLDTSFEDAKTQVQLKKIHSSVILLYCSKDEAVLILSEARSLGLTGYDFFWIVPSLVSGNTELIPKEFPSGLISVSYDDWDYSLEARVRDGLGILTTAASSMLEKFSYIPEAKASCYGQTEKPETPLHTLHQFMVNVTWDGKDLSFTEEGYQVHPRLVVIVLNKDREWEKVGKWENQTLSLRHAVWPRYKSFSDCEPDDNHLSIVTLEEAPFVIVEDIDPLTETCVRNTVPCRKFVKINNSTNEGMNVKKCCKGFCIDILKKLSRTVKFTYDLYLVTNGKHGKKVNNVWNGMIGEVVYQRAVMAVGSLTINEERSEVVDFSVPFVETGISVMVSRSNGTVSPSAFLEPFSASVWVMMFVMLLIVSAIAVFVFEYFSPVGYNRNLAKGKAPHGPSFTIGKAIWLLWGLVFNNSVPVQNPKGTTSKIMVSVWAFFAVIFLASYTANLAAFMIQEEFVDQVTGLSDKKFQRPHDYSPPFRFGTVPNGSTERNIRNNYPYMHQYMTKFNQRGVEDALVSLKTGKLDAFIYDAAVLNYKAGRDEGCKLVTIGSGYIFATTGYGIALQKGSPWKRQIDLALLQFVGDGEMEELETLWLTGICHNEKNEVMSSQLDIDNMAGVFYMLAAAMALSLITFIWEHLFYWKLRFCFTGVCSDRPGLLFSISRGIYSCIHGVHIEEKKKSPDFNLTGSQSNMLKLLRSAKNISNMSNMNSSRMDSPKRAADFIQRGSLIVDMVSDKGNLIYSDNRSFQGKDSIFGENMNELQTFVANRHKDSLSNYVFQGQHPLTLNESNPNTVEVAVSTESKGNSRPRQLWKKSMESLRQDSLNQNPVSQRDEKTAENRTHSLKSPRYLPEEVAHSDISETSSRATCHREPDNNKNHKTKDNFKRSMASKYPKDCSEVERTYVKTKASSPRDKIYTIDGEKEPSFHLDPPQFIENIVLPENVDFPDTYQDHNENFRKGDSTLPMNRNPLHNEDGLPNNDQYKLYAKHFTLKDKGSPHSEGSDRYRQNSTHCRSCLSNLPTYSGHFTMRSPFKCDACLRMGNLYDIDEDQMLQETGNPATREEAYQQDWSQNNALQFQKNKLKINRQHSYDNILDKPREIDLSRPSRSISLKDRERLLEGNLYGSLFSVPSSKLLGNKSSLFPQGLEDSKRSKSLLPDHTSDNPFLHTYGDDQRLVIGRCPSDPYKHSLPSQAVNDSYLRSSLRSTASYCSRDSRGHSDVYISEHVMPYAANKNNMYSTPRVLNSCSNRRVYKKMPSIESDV

SMILES: CCOc1cc(Cl)c(Cl)c(/C=N/NC(=O)c2ccccc2Br)c1O [Npam43, (E)-2-bromo-N′-(2,3-dichloro-5-ethoxy-6-hydroxybenzylidene)benzohydrazide]
- Effect on GluN2A component of NMDAR currents [1]: selectively potentiated the GluN2A component of NMDAR currents
- Induction of LTP [2]: can facilitate the induction of LTP
- Effect on NMDAR EPSC, GluN2A KO mice ([3]; brain slices of GluN2A KO mice): no effect
- Effect on NMDAR EPSC, WT mice ([3]; brain slices of wild-type mice): clear potentiation of NMDAR EPSC
